Legend:
CCK-A = biological target: T1, CCK-A (Rattus norvegicus, UniProt P30551); experiment: Displacement of 125I-CCK-OP binding to rat pancreatic membranes (CCK-A binding); settings: 125I-CCK-OP
T1 sequence (P30551 1-444): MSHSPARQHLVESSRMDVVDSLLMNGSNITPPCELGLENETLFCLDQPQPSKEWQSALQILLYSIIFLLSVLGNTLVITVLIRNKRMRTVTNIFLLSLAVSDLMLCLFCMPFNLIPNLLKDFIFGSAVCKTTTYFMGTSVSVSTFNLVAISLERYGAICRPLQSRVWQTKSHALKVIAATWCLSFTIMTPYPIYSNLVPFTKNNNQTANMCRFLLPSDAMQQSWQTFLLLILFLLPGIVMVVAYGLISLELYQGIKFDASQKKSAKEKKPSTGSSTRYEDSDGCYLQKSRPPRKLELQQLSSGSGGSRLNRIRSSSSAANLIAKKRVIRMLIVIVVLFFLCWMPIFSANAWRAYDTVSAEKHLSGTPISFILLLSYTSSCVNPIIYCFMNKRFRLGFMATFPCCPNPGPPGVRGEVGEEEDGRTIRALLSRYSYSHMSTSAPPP

CCK-B = biological target: T2, CCK-B (Cavia porcellus, UniProt H0VZC5); experiment: Displacement of 125I-CCK-OP binding to guinea pig brain homogenates (CCK-B binding); settings: guinea pig brain membranes; for inhibition at 10 µM: read-out: CCK-B binding GP brain membranes: percent displacement of 125I-CCK-OP
T2 construct: Rat pancreas or guinea pig brain was homogenized; from tissue; host or cells: guinea pig brain homogenate (membrane pellet)
T2 sequence (H0VZC5 1-426): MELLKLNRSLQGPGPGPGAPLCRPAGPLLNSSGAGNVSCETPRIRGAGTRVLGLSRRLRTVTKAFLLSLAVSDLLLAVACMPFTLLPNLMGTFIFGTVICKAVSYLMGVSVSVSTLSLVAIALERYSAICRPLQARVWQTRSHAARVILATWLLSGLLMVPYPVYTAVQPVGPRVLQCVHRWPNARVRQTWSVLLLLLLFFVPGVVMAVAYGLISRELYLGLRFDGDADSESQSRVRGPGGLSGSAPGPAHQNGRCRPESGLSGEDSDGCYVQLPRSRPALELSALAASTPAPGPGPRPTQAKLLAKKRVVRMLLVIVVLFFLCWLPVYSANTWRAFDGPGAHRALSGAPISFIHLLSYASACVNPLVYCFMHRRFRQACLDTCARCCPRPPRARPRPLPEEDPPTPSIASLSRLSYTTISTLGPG
Procedure: Percent displacement of ^125 I-CCK-OP binding to rat pancreatic membrane and guinea pig brain homogenates by compounds of the instant invention at different concentrations was used to quantify CCK-A and CCK-B receptor binding, respectively.
Binding of 125-CCK-OP to rat pancreas (CCK-A) and guinea pig brain (CCK-B) homogenates.
Rat pancreas or guinea pig brain was homogenized in 50 and 20 volumes, respectively, of 50 mM Tris-HCl buffer (pH 7.8 at 25° C.) with a Brinkmann polytron homogenizer. The homogenates were centrifuged twice at 50,000 x g for 20 min with an intermediate rehomogenization in fresh buffer. The final pellets were resuspended in 20 volumes (brain) or 40 volumes (pancreas) of incubation buffer [50 mM Tris-HCl, 5 mM MgCl2, 0.2% BSA, 5 mM dithiothreitol, 0.14 mg/ml bacitracin, pH 7.9 at 25° C.]. One milliliter of the final homogenate from brain or pancreas was diluted to 50 mL with incubation buffer to use in the binding assay.
Binding experiments were performed in a final volume of 1 mL in 13×100 mm borosilicate disposable culture tubes. To duplicate tubes were added 890 μL of freshly resuspended pancreas or brain homogenate; 73,000 dpm of […] (final concentration, 12 pM) and 10 μL of DMSO containing displacing agents (compounds or reference compounds, at the desired final concentrations). Nonspecific (nonsaturable) binding was determined in the presence of 1 μM unlabeled CCK-OP. After incubation for 30 min at 37° C. the binding was stopped by rapid filtration under a reduced pressure through glass fiber FPD-105 Whatman GF/B filters on Harvester and washed twice with 5 mL of ice-cold Tris buffer (50 mM Tris-HCl, pH 7.8). The radioactivity on the filters was counted in a gama counter. […] Specific binding was defined as the excess binding over that in blanks containing 1 μM unlabeled CCK-OP.
Determination of IC50 for displacing agents

CCK receptors = experiment: Rat gastric emptying: reversal of CCK-delayed gastric emptying; assay type: in vivo; settings: CCK 100 μg/Kg i.p.; for CCK-delayed gastric emptying: ED50: IP
Procedure: Rat Gastric Emptying Protocol
A test meal for measuring gastric emptying in rats was prepared. Ten grams of methylcellulose (2% solution=15 centipoises; Aldrich Chemical Company, Milwaukee, Wisc. was added to 200ml of cold water and mixed at 20,000 rpm in a Waring blender to insure dispersion and hydration of the methylcellulose. In addition, two beef bouillon cubes (Wyler's, Columbus, Ohio) dissolved in 100 ml of warm water was added to the mixture, followed by 16 g of casein (Hammersten, Schwartz/Mann, Orangeburg, N.Y.), 8 g of powdered confectioners sugar and 8 g of cornstarch. The ingredients were mixed for two minutes at 20,000 rpm and the resultant test meal was refrigerated for 48 hours to allow trapped air to escape. Male Charles River Rats, Crl: COBS, CD (SD) BR Strain, 180-200 g body weight, were used in groups of six animals. The animals were food deprived for 24 hours prior to the experiment with access to water ad libitum. The compounds to be evaluated were prepared in a 0.5% aqueous methylcellulose solution. If insoluble, the mixture was homogenized for two minutes at 5500 rpm using a Try-R-Stir-R. The compounds were given intraperitoneally or intragastrically at a volume of 5 ml/kg, 60 minutes or 90 min, respectively, before the test meal. Control animals received only the vehicle. Cholecystokinin (100 μg/Kg, i.p.) was given 30 minutes before the test meal to delay gastric emptying by an effect elicited through CCK receptors. Sixty minutes after the test meal (2.0 ml/rat, i.g.), the rats were sacrificed by CO2 asphyxiation. The stomachs were removed intact and weighed. The stomachs were kept opened, gently rinsed with tap water, blotted dry with paper toweling, and the empty stomach weighed. The difference between the weight of the full and empty stomach is indicative of the amount of meal remaining in the stomach. The amount of meal remaining in the stomach was subtracted from the weight of 3 ml of the test meal to determine the amount of food emptied from the stomach during the test. Weight of the test meal was determined by weighing three samples (3 ml) at the beginning and three samples at the end of each experiment and calculating the mean. The mean and standard error of the amount of meal emptied were calculated for at least 5 doses of compound, and expressed as percent change from control.

Row | IC50 (CCK-A) [nM] | inhibition at 10 µM (CCK-B) [%] | IC50 (CCK-B; 125I-CCK-OP, read-out: CCK-B binding GP brain membranes: IC50) [nM] | Structure (SMILES) | CCK-delayed gastric emptying: ED50 (CCK receptors) [mpk] | CCK-delayed gastric emptying: % Reversal @ Dose (CCK receptors; 1.0 mpk IP) [%] | CCK-delayed gastric emptying: % Reversal @ Dose (CCK receptors; 3 mpk IP) [%]
1 | 15 | 48 | – | O=C(N[C@@H]1C(=O)N(c2ccccc2)C[C@@H]1C(=O)O)c1ccc2ccccc2c1 (relative stereo) [41 cis] | 0.41 | – | –
2 | 17 | – | 5100 | O=C(N[C@H]1C(=O)N(c2ccccc2)C[C@H]1C(=O)O)c1cc2ccccc2[nH]1 (relative stereo) [Example 29, cis-4-[(1H-indol-2-ylcarbonyl)amino]-5-oxo-1-phenyl-3-pyrrolidinecarboxylicacid] | < 0.1 | 86.3 | –
3 | 58 | 35 | – | O=C(N[C@H]1C(=O)N(c2ccccc2)C[C@H]1C(=O)O)c1ccc(Cl)c(Cl)c1 (relative stereo) [Example 35 (cis), cis-4-[[(3,4-dichlorophenyl)carbonyl]amino]-5-oxo-1-phenyl-3-pyrrolidinecarboxylic acid] | – | – | 57.9
4 | – | 41 | – | O=C(N[C@H]1C(=O)N(c2ccccc2F)C[C@H]1C(=O)O)c1ccc2ccccc2c1 (relative stereo) [Example 44, cis-1-(2-Fluorophenyl)-4-[(2-naphthalenylcarbonyl]amino]-5-oxo-3-pyrrolidinecarboxylic acid] | 1.7 | – | 86

Source: patent publication US5314886A, “N-substituted lactams useful as cholecystokinin antagonists” (priority 1992, dated 1994)
